According to patent US20120157453A1, “RAF INHIBITOR COMPOUNDS AND METHODS OF USE THEREOF” (GENENTECH, INC., priority 2009, published 2012):
Like-named read-outs stand apart in the source and are kept apart here.

Assays:
[1] = tested on: basal ERK1/2 phosphorylation in Malme-3M cells; experiment: Cellular ERK 1/2 phosphorylation assay; format: cell-based; conditions: Homo sapiens, 1 h, pERK normalized to total ERK
Protocol: Inhibition of basal ERK1/2 phosphorylation was determined by the following in vitro […], which comprises incubating cells with a compound of Formula II for 1 hour and quantifying the fluorescent pERK signal on fixed cells and normalizing to total ERK signal.
Materials and Methods: Malme-3M cells were obtained from ATCC and grown in RPMI-1640 supplemented with 10% fetal bovine serum. Cells were plated in 96-well plates at 24,000 cells/well and allowed to attach for 16-20 hours at 37° C., 5% CO2. The media was removed, and DMSO-diluted compounds were added in RPMI-1640 at a final concentration of 1% DMSO. The cells were incubated with the compounds for 1 hour at 37° C., 5% CO2. The cells were washed with PBS and fixed in 3.7% formaldehyde in PBS for 15 minutes. This was followed by washing in PBS/0.05% Tween20 and permeabilizing in −20° C. 100% MeOH for 15 minutes. Cells were washed in PBS/0.05% Tween20 then blocked in Odyssey blocking buffer (LI-COR Biosciences) for 1 hour. Antibodies to phosphorylated ERK (1:400, Cell Signaling #9106, monoclonal) and total ERK (1:400, Santa Cruz Biotechnology #sc-94, polyclonal) were added to the cells and incubated 16-20 hours at 4° C. After washing with PBS/0.05% Tween20, the cells were incubated with fluorescently-labeled secondary antibodies (1:1000 goat anti-rabbit IgG-IRDye800, Rockland and 1:500 goat anti-mouse IgG-Alexa Fluor 680, Molecular Probes) for an additional hour. Cells were then washed and analyzed for fluorescence at both wavelengths using the Odyssey Infrared Imaging System (LI-COR Biosciences). Phosphorylated ERK signal was normalized to total ERK signal.

V600E full-length B-Raf = biological target: T1, V600E full-length B-Raf (Homo sapiens, UniProt P15056, V600E); experiment: B-Raf IC50 assay (incorporation of 33P phosphate into FSBA-modified MEK); format: biochemical
T1 construct: 1 μM FSBA-MEK and 20 nM V600E full-length B-Raf; made in house; host or cells: Sf9 insect cells (baculovirus)
T1 sequence (P15056 whole entry V600E): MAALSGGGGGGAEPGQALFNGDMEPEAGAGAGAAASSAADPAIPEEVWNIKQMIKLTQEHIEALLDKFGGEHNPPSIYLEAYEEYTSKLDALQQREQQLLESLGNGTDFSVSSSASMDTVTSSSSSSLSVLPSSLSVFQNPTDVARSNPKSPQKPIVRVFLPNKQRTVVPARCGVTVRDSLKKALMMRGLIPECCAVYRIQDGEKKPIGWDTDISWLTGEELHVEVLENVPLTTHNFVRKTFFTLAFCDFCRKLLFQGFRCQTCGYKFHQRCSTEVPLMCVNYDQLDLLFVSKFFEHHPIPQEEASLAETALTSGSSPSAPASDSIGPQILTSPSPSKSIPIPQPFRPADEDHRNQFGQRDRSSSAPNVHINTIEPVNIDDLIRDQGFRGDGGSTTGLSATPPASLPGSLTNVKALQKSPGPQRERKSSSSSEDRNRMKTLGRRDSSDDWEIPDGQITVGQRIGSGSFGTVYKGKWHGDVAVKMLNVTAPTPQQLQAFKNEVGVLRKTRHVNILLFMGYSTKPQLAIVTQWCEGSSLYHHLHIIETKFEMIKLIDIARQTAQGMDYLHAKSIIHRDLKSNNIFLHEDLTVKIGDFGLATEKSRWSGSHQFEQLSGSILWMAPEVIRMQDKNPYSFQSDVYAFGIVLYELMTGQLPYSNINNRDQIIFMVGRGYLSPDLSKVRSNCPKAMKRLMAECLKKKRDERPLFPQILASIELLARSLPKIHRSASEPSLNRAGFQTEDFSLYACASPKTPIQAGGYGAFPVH
Excerpt: Determining the activity of Raf in the sample is possible by a number of direct and indirect detection methods (US 2004/0082014). Activity of human recombinant B-Raf protein may be assessed in vitro by assay of the incorporation of radio labeled phosphate to recombinant MAP kinase (MEK), a known physiologic substrate of B-Raf, according to US 2004/0127496 and WO 03/022840. The activity/inhibition of V600E full-length B-Raf was estimated by measuring the incorporation of radio labeled phosphate from [γ-^33P]ATP into FSBA-modified wild-type MEK (see Example A).
Activity of human recombinant B-Raf protein may be assessed in vitro by assay of the incorporation of radio labeled phosphate to recombinant MAP kinase (MEK), a known physiologic substrate of B-Raf, according to US 2004/0127496 and WO 03/022840. Catalytically active human recombinant B-Raf protein is obtained by purification from sf9 insect cells infected with a human B-Raf recombinant baculovirus expression vector.
The activity/inhibition of V600E full-length B-Raf was estimated by measuring the incorporation of radio labeled phosphate from [γ-^33P]ATP into FSBA-modified wild-type MEK. The 30-μL assay mixtures contained 25 mM Na Pipes, pH 7.2, 100 mM KCl, 10 mM MgCl2, 5 mM β-glycerophosphate, 100 μM Na Vanadate, 4 μM ATP, 500 nCi [γ-^33P]ATP, 1 μM FSBA-MEK and 20 nM V600E full-length B-Raf. Incubations were carried out at 22° C. in a Costar 3365 plate (Corning). Prior to the assay, the B-Raf and FSBA-MEK were preincubated together in assay buffer at 1.5× (20 μL of 30 nM and 1.5 μM, respectively) for 15 minutes, and the assay was initiated by the addition of 10 μL of 10 μM ATP. Following the 60-minute incubation, the assay mixtures were quenched by the addition of 100 μL of 25% TCA, the plate was mixed on a rotary shaker for 1 minute, and the product was captured on a Perkin-Elmer GF/B filter plate using a Tomtec Mach III Harvester. After sealing the bottom of the plate, 35 μL of Bio-Safe II (Research Products International) scintillation cocktail were added to each well and the plate was top-sealed and counted in a Topcount NXT (Packard).

[2] = B-Raf V600E, bound less than 1 μM, read-out: IC50
[3] = Example A assay, 4 μM ATP, 20 nM enzyme, 60-minute incubation, read-out: BRAF V600E IC50

SMILES | IC50 (V600E full-length B-Raf; [2]) [nM] | IC50 (V600E full-length B-Raf; [3]) [nM] | IC50 ([1]; bound less than 500 nM) [nM] | IC50 ([1]; bound less than 1 μM) [nM] | IC50 [1] [nM] | IC50 (V600E full-length B-Raf) [nM]
CCCS(=O)(=O)Nc1ccc(F)c(NC(=O)Nc2ncnc3[nH]nc(OC)c23)c1Cl [Example 2, Propane-1-sulfonic acid {2-chloro-4-fluoro-3-[3-(3-methoxy-1H-pyrazolo[3,4-d]pyrimidin-4-yl)-ureido]-phenyl}-amide] | < 1000 | 1.3 | < 500 | < 1000 |  | 
CCCS(=O)(=O)Nc1ccc(F)c(NC(=O)N(C)c2ncnc3[nH]ccc23)c1F [Example 6, Propane-1-sulfonic acid {2,4-difluoro-3-[3-methyl-3-(7H-pyrrolo[2,3-d]pyrimidin-4-yl)-ureido]-phenyl}-amide] | < 1000 | 57 |  |  |  | 
CCCS(=O)(=O)Nc1ccc(F)c(NC(=O)Nc2ncnc3[nH]nc(OC)c23)c1OC [Example 8, Propane-1-sulfonic acid {4-fluoro-2-methoxy-3-[3-(3-methoxy-1H-pyrazolo[3,4-d]pyrimidin-4-yl)-ureido]-phenyl}-amide] | < 1000 | 192 |  | < 1000 |  | 
CCCS(=O)(=O)Nc1ccc(F)c(NC(=O)Nc2ncnc3[nH]nc(OCC)c23)c1F [Example 9, N-(3-(3-(3-Ethoxy-1H-pyrazolo[3,4-d]pyrimidin-4-yl)ureido)-2,4-difluorophenyl)propane-1-sulfonamide] | < 1000 | 0.9 | < 500 | < 1000 |  | 
CCCS(=O)(=O)Nc1ccc(F)c(NC(=O)Nc2ncnc3[nH]nc(OC)c23)c1F [Example 10, Propane-1-sulfonic acid {2,4-difluoro-3-[3-(3-methoxy-1H-pyrazolo[3,4-d]pyrimidin-4-yl)-ureido]-phenyl}-amide] | < 1000 | 1.4 | < 500 | < 1000 |  | 
CCCS(=O)(=O)Nc1ccc(F)c(NC(=O)Nc2ncnc3[nH]ncc23)c1F [Example 11, Propane-1-sulfonic acid {2,4-difluoro-3-[3-(1H-pyrazolo[3,4-d]pyrimidin-4-yl)-ureido]-phenyl}-amide] | < 1000 |  | < 500 | < 1000 |  | 5.5
CCCS(=O)(=O)Nc1ccc(F)c(NC(=O)Nc2ncnc3[nH]nnc23)c1F [Example 14, Propane-1-sulfonic acid {2,4-difluoro-3-[3-(3H-[1,2,3]triazolo[4,5-d]pyrimidin-7-yl)-ureido]-phenyl}-amide] |  | 1960 |  |  |  | 
CCCS(=O)(=O)Nc1ccc(F)c(NC(=O)Nc2ncnc3[nH]nc(OCCCO)c23)c1F [Example 15, Propane-1-sulfonic acid {2,4-difluoro-3-{3-[3-(3-hydroxy-propoxy)-1H-pyrazolo[3,4-d]pyrimidin-4-yl]-ureido}-phenyl)-amide] | < 1000 | 428 |  |  |  | 
CCCS(=O)(=O)Nc1ccc(F)c(NC(=O)Nc2ncnc3oc(C)c(C)c23)c1F [Example 18, Propane-1-sulfonic acid {3-[3-(5,6-dimethyl-furo[2,3-d]pyrimidin-4-yl)-ureido]-2,4-difluoro-phenyl}-amide] | < 1000 | 431 |  |  |  | 
CCCS(=O)(=O)Nc1ccc(F)c(NC(=O)Nc2ncnc3[nH]c(=S)[nH]c23)c1F [Example 23, Propane-1-sulfonic acid {2,4-difluoro-3-[3-(8-thioxo-8,9-dihydro-7H-purin-6-yl)-ureido]-phenyl}-amide] | < 1000 | 29.2 |  |  |  | 

Now from value to compound, other results behind:

IC50 (V600E full-length B-Raf; [2]) [nM] | IC50 (V600E full-length B-Raf; [3]) [nM] | SMILES | IC50 ([1]; bound less than 500 nM) [nM] | IC50 ([1]; bound less than 1 μM) [nM] | IC50 [1] [nM] | IC50 (V600E full-length B-Raf) [nM]
< 1000 | 23.9 | CCCS(=O)(=O)Nc1ccc(F)c(NC(=O)N(C)c2ncnc3[nH]cnc23)c1F [Example 1, Propane-1-sulfonic acid {2,4-difluoro-3-[3-methyl-3-(9H-purin-6-yl)-ureido]-phenyl}-amide] | < 500 | < 1000 |  | 
< 1000 | 3.4 | CCS(=O)(=O)Nc1ccc(F)c(NC(=O)Nc2ncnc3[nH]nc(OC)c23)c1F [Example 3, Ethanesulfonic acid {2,4-difluoro-3-[3-(3-methoxy-1H-pyrazolo[3,4-d]pyrimidin-4-yl)-ureido]-phenyl}-amide] | < 500 | < 1000 | 13.5 | 
< 1000 | 1.9 | CCS(=O)(=O)Nc1ccc(Cl)c(NC(=O)Nc2ncnc3[nH]nc(OC)c23)c1F [Example 4, Ethanesulfonic acid {4-chloro-2-fluoro-3-[3-(3-methoxy-1H-pyrazolo[3,4-d]pyrimidin-4-yl)-ureido]-phenyl}-amide] | < 500 | < 1000 |  | 
< 1000 | 3.9 | CCS(=O)(=O)Nc1ccc(F)c(NC(=O)Nc2ncnc3[nH]nc(OC)c23)c1Cl [Example 5, Ethanesulfonic acid {2-chloro-4-fluoro-3-[3-(3-methoxy-1H-pyrazolo[3,4-d]pyrimidin-4-yl)-ureido]-phenyl}-amide] | < 500 | < 1000 | 47.9 | 
< 1000 | 3.8 | CCCS(=O)(=O)Nc1ccc(F)c(NC(=O)Nc2ncnc3[nH]nc(I)c23)c1F [Example 7, Propane-1-sulfonic acid {2,4-difluoro-3-[3-(3-iodo-1H-pyrazolo[3,4-d]pyrimidin-4-yl)-ureido]-phenyl}-amide] |  | < 1000 |  | 
< 1000 | 56.2 | CCCS(=O)(=O)Nc1ccc(F)c(NC(=O)Nc2ncnc3[nH]ccc23)c1F [Example 12, Propane-1-sulfonic acid {2,4-difluoro-3-[3-(7H-pyrrolo[2,3-d]pyrimidin-4-yl)-ureido]-phenyl}-amide] | < 500 | < 1000 |  | 
< 1000 | 4.7 | CCCS(=O)(=O)Nc1ccc(F)c(NC(=O)Nc2ncnc3[nH]cnc23)c1F [Example 13, Propane-1-sulfonic acid {2,4-difluoro-3-[3-(9H-purin-6-yl)-ureido]-phenyl}-amide] | < 500 | < 1000 |  | 
< 1000 | 0.6 | CCCS(=O)(=O)Nc1ccc(Cl)c(NC(=O)Nc2ncnc3[nH]nc(OC)c23)c1F [Example 16, Propane-1-sulfonic acid {4-chloro-2-fluoro-3-[3-(3-methoxy-1H-pyrazolo[3,4-d]pyrimidin-4-yl)-ureido]-phenyl}-amide] | < 500 | < 1000 |  | 
< 1000 | 97.9 | CCCS(=O)(=O)Nc1ccc(F)c(NC(=O)Nc2ncnc3sccc23)c1F [Example 17, Propane-1-sulfonic acid [2,4-difluoro-3-(3-thieno[2,3-d]pyrimidin-4-yl-ureido)-phenyl]-amide] | < 500 | < 1000 |  | 
< 1000 | 25.2 | CCCS(=O)(=O)Nc1ccc(F)c(NC(=O)Nc2ncnc3sc4c(c23)CCC4)c1F [Example 19, Propane-1-sulfonic acid {3-[3-(6,7-dihydro-5H-cyclopenta[4,5]thieno[2,3-d]pyrimidin-4-yl)-ureido]-2,4-difluoro-phenyl}-amide] | < 500 | < 1000 | 176 | 
